For data set [1], the system named is Diabrotica balteata. As to the kind of experiment: Diabrotica balteata spray test. Format: in vivo. The settings on record: application rate 160 μg/well, wheat grains with beetle larvae, after 7 days. On the procedure: Diabrotica balteata—Spray Test Solvent: 78 parts by weight of acetone • • 1.5 parts by weight of dimethylformamide Emulsifier: alkylaryl polyglycol ether
(§1) To produce a suitable active ingredient formulation, 1 part by weight of active ingredient is dissolved with the stated parts by weight of solvent and made up with water containing an emulsifier concentration of 1000 ppm until the desired concentration is attained. To produce further test concentrations, the formulation is diluted with emulsifier-containing water.
Pre-swollen wheat grains (Triticum aestivum) are incubated in a multiwell plate filled with agar and a little water for one day (5 seed grains per cavity). The germinated wheat grains are sprayed with an active ingredient formulation of the desired concentration. Subsequently, each cavity is infected with 10-20 beetle larvae of Diabrotica balteata.
After 7 days, the efficacy in % is determined. 100% means that all wheat plants have grown as in the untreated, uninfected control; 0% means that no wheat plant has grown.

Data set [2] in a line: log P by HPLC on reversed-phase column (EEC directive 79/831 Annex V.A8). Format: physicochemical. The note with it: for log p a): HPLC on reversed-phase column; for log p: HPLC on reversed-phase column (footnote a). The essentials: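 Determined per EEC directive 79/831 Annex V.A8 by HPLC on a reversed-phase C18 column at 43° C.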
In data set [3] the test system is Myzus persicae. As to the kind of experiment: Myzus persicae oral test. The settings on record: application rate 20 ppm, oral uptake through parafilm, after 5 days. Format: in vivo. The essentials:
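Compound dissolved in acetone, diluted with water, then mixed into IPL41 insect medium with sugar in microtitre plates under parafilm. Mixed-population green peach aphids fed through the membrane; % mortality scored after 5 days (100% = all killed).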

Data set [4] concerns Myzus persicae. Put plainly: Myzus persicae spray test (Chinese cabbage leaf discs). The settings on record: application rate 500 g/ha, after 6 days. The class given is in vivo. On the procedure:
Myzus persicae—Spray Test Solvent: 78 parts by weight of acetone • • 1.5 parts by weight of dimethylformamide Emulsifier: alkylaryl polyglycol ether
as §1
Discs of Chinese cabbage leaves (Brassica pekinensis) infested by all stages of the green peach aphid (Myzus persicae) are sprayed with an active ingredient formulation of the desired concentration.
After 6 days, the efficacy in % is determined. 100% means that all the aphids have been killed; 0% means that no aphids have been killed.

As to `CCCNC(=O)c1c([O-])n(C(C)c2ccc(Cl)nc2)c2c(C)ccc[n+]12` (racemic) [Example I-1-258], the efficacy in data set [1] stood at 80%. For the same compound, in data set [2], the “log p a)” value turned out to be 2.23.
Turning to `O=C(COCc1ccccc1)c1c([O-])n(Cc2cnc(Cl)s2)c2cccc[n+]12` [Example I-1-041], the efficacy in data set [1] was 80%; in data set [3], 100%. For the same compound, the log p in data set [2] stood at 2.35.
Compound `CNC(=O)c1c([O-])n(Cc2cnc(Cl)s2)c2cccc[n+]12` [Example I-1-128] had an efficacy in data set [1] of 100%. The compound also gave a log p in data set [2] of 1.31.
In data set [1], `O=C(Nc1cccc(OC(F)(F)F)c1)c1c([O-])n(Cc2cnc(Cl)s2)c2cccc[n+]12` [Example I-1-230] had an efficacy of 100%. Moreover, in data set [2], the “log p a)” value worked out at 3.87.
In the case of `O=C(Nc1cccc(C(F)(F)F)c1)c1c([O-])n(Cc2cnc(Cl)s2)c2cccc[n+]12` [Example I-1-233], the efficacy in data set [1] stood at 80%. In addition, the “log p a)” value in data set [2] is 3.76.
In the case of `CC(c1ccc(Cl)nc1)n1c([O-])c(C(=O)Nc2cccc(C(F)(F)F)c2)[n+]2ccccc12` (centres unmarked) [Example I-1-238], the efficacy in data set [1] is given as 80%. Also, the “log p a)” value in data set [2] is reported as 3.72.
For `Cc1ccc[n+]2c(C(=O)NC3CC3)c([O-])n(C(C)c3cnc(Cl)s3)c12` (centres unmarked) [Example I-1-290], in that order: 100% and 2.2.
In the same order, the values of `Cc1ccc[n+]2c(C(=O)Nc3c(F)cccc3F)c([O-])n(Cc3cnc(Cl)s3)c12` [Example I-1-291] are 80% and 3.07.
Take `O=C(Nc1c(Cl)ccnc1Cl)c1c([O-])n(Cc2cnc(Cl)s2)c2cccc[n+]12` [Example I-1-305]: the efficacy in data set [4] was 90%; in data set [3] it was 100%. Further, the “log p a)” value in data set [2] worked out at 2.14.
As to `O=C(Nc1cccnc1Cl)c1c([O-])n(Cc2cnc(Cl)s2)c2cccc[n+]12` [Example I-1-308], the efficacy in data set [4] amounted to 90%; in data set [3], 100%. In addition, the “log p a)” value in data set [2] was found to be 2.4.
Consider `Cc1ccnc(Cl)c1NC(=O)c1c([O-])n(Cc2cnc(Cl)s2)c2cccc[n+]12` [Example I-1-309], for which the efficacy in data set [4] and in data set [3] was 100% in each case. The “log p a)” value in data set [2] is 2.03.
`N#Cc1cccnc1NC(=O)c1c([O-])n(Cc2cnc(Cl)s2)c2cccc[n+]12` [Example I-1-310]: the efficacy was found to be 90% in data set [4] and 100% in data set [3]. Further, the “log p a)” value in data set [2] is 1.75.
As to `O=C(Nc1ccccc1C(F)(F)F)c1c([O-])n(Cc2cnc(Cl)s2)c2cccc[n+]12` [Example I-1-311], the efficacy in data set [4] and in data set [3] was 100% each time. Moreover, the “log p a)” value in data set [2] is on record as 3.22.
For `O=C(Nc1c(F)cccc1F)c1c([O-])n(Cc2ccc(Cl)nc2)c2cccc[n+]12` [Example I-1-313], the efficacy in data set [4] amounted to 90%; in data set [3] it was 100%. In addition, the “log p a)” value in data set [2] is given as 2.27.
As to `O=C(Nc1ncccc1Cl)c1c([O-])n(Cc2ccc(Cl)nc2)c2cccc[n+]12` [Example I-1-315], the efficacy in data set [4] and in data set [3] was 100% in each case. The “log p a)” value in data set [2] is 1.46.
With `N#Cc1cccc(Cl)c1NC(=O)c1c([O-])n(Cc2cnc(Cl)s2)c2cccc[n+]12` [Example I-1-319], the values for the efficacy in data set [4] and in data set [3] were 90% and 100%, respectively. For the same compound, in data set [2], the “log p a)” value turned out to be 2.43.
`Cn1nccc1NC(=O)c1c([O-])n(Cc2ccc(Cl)nc2)c2cccc[n+]12` [Example I-1-325]: the values for the efficacy in data set [4] and in data set [3] were 90% and 100%, respectively. In addition, the “log p a)” value in data set [2] is 1.49.
Turning to `Cc1ccccc1NC(=O)c1c([O-])n(Cc2ccc(Cl)nc2)c2cccc[n+]12` [Example I-1-328], the values for the efficacy in data set [4] and in data set [3] were 90% and 100%, respectively. Besides, in data set [2], the “log p a)” value came out at 2.73.

(Values after patent US20180282323A1, “Mesoionic imidazole derivatives as insecticides” (BAYER CROPSCIENCE AKTIENGESELLSCHAFT, priority 2015, published 2018).)
